Here are results for 1 compound from ChEMBL document CHEMBL1131691, “Design and synthesis of simplified sordaricin derivatives as inhibitors of fungal protein synthesis” (Bioorg Med Chem Lett, 1999).

Structures are written as SMILES.

Test [1] deals with Candida albicans. Nature of the test: Inhibitory concentration against Candida albicans 2005E protein synthesis. It counts as functional, organism-based.
The subject of test [2] is Candida albicans. Nature of the test: Minimum inhibitory concentration Candida albicans 2005E cell growth. It counts as functional.

Compound `CC(C)C1=CC2C[C@]3(C=O)C4CCC(C)C4C[C@]2(CO)[C@]13C(=O)O` (some centres not stated) [SORDARICIN] came in with an IC50 in test [1] of 500 nM. In addition, in test [2], the minimal inhibitory concentration (MIC) is more than 376 µM.

The term IC50 denotes the concentration that gives 50% inhibition. In general, MIC refers to the smallest concentration in the dilution series that meets the test's criterion for growth inhibition. High values mean a less susceptible organism, low ones a more susceptible organism.
